Marks after values point to notes of the source that are not given here.
Key:
in vitro [1] = conditions: human, microsomes; for microsomal CLint at 1 µM: pH 7.4, In vitro Clint; for half-life at 1 µM: pH 7.4, In vitro T1/2
Method: (§1) The metabolic stability of compounds disclosed herein in liver microsomes was determined using the following method.
(§2) Liver microsome source: Human liver microsome (Corning, 452117) • 2. Na2HPO4 (Tianjin Guangfu Fine Chemical Research Institute, 20180130) • 3. KH2PO4 (Tianjin Guangfu Fine Chemical Research Institute, 20180920) • 4. MgCl2 (Tianjin Guangfu Fine Chemical Research Institute, 20191216) • 5. NADPH (Solarbio, 1216C022) • 6. Positive control compound: verapamil (Sigma, MKBV4993V) • 7. AB Sciex Triple Quad 4000 liquid chromatography-mass spectrometry system
(§3) Preparation of 100 mM phosphate-buffered saline (PBS): 7.098 g Na2HPO4 was dissolved in 500 mL of purified water by sonication to give solution A. 3.400 g of KH2PO4 was dissolved in 250 mL of purified water by sonication to give solution B. Solution A was placed on a stirrer, and solution B was added slowly until the pH reached 7.4, so as to give a 100 mM PBS buffer. […] Preparation of reaction system The reaction system was prepared according to the table below.
(§4) The reaction system was pre-incubated in a 37 °C water bath for 10 min. 40 µL of 10 mM NADPH solution (in 100 mM phosphate-buffered saline) was added to the reaction system, with the final NADPH concentration being 1 mM. A negative control was prepared by replacing the NADPH solution with 40 µL of phosphate-buffered saline. The negative control was used to exclude the effect of the chemical stability of the compound itself. […] The reaction was initiated by adding 4 µL of 100 µM compound disclosed herein or positive control compound verapamil to the reaction system at a final concentration of 1 µM. […] After 0.5 min, 15 min, 30 min, 45 min, and 60 min of mixing well by using a vortex oscillator, 50 µ L of the incubated sample was taken out, and glacial acetonitrile containing an internal standard of 4 folds was added to terminate the reaction. The sample was centrifuged at 3,220 g for 45 min. 90 µL of the supernatant was transferred to a feeding plate after the centrifugation was completed, and 90 µL ultrapure water was added. The mixture was well mixed for LC-MS/MS analysis.
(§5) All data were calculated by using Microsoft Excel software. The peak areas were determined by using an extracted ion chromatogram. The in vitro half-life (T1/2) of the test compound was determined by linear fitting of the natural logarithm of the elimination proportion of the test compound over time. In vitro half-life (T1/2) was calculated by the slope k: in vitro T1/2 = 0.693/k [formula]
(§6) The in vitro intrinsic clearance (in vitro CLint, unit: µL/min/mg protein) was calculated using the following formula: in vitro CLint = k × volume of incubation solution/enzyme protein content; [formula]

in vitro [2] = conditions: mouse, blood, Half-life T 1/2 in CD-1 mouse whole blood
Method: (§7) 1 mM stock solutions of the test compounds were prepared in DMSO, and a 1 mM stock solution of the reference compound propantheline was prepared in acetonitrile.
(§8) 4 µL of test compound stock solution (or reference compound stock solution) was added to 796 µL of pre-incubated whole blood (CD-1 mouse whole blood or human whole blood) at a final concentration of 5 µM. The final concentration of the solvent was 0.5%. At different time points (including 5 min, 15 min, 30 min, 60 min, and 120 min), a 50 µL aliquot of the whole blood containing the sample was added to a new tube and incubated in a 37 °C water bath with shaking at 60 rpm. The treatment was performed in duplicate. At designated time points, 300 µL of room-temperature quenching solution (a solution of acetonitrile containing internal standards (100 nM alprazolam, 500 nM labetalol, and 2 µM ketoprofen)) was added to the whole blood sample containing the sample to terminate the reaction. 50 µL of whole blood containing the sample was added to a new tube containing 300 µL of room-temperature quenching solution to prepare a sample at 0 min. All samples were vortexed for 5 min. The samples in the plate were centrifuged at 3220 g for 30 min at 4 °C to precipitate the proteins. 100 µL of the supernatant was transferred to a new 96-well plate containing 100 µL of water for LC-MS/MS analysis.
(§9) The peak area ratio was determined by using an extracted ion chromatogram. The proportion of remaining compound at each time point was calculated according to the following formula: Remaining proportion t min (%) = peak area ratio t min / peak area ratio 0 min × 100% [formula] • Peak area ratio t min: peak area ratio of reference compound to test compound at t min; • Peak area ratio 0 min: peak area ratio of reference compound to test compound at time zero.
(§10) The slope value was determined by linear regression on the curve of the natural logarithm of the remaining proportion of the test compound versus the incubation time.
(§11) Determination of in vitro half-life (in vitro t1/2) from the slope value: in vitro t1/2 = 0.693/k [formula] in the formula, k is the rate constant (k = -slope value)

in vitro [3] = conditions: human, blood, Half-life T 1/2 in human whole blood
Method: as §7, §8, §9, §10, §11

AR = AR antagonistic activity: AR / PSA ARE1 luciferase reporter gene assay in transfected LNCaP cells stimulated with 1 nM DHT; format: cell-based
Method: LNCaP cells were plated in a 6-well plate (Corning, 3516) at 8 × 10^5 cells/well.
Transfection reagents Lipo 3000 and P3000 (Lipofectamine™ 3000) and AR and PSA ARE1 reporter gene plasmids (Bio (Anhui) Co., Ltd.) (a total of 2.5 µg of plasmids, i.e., 1.25 µg of each plasmid, were added to each well) were left to stand and incubated at room temperature for 10 min, and then 250 µL of the above transfection reagents were added dropwise to each well containing cells.
The cells were washed with PBS, and the medium was replaced with a phenol red-free RPMI-1640 medium containing 5% carbon adsorption serum. The cells were re-plated onto a 96-well plate (Corning, 3603) according to the number of cells plated (2 × 10^4 cells/well).
After cell plating, the test compound (or DMSO or positive control) was added. After at least 30 min of incubation (incubator, 37 °C, 5% CO2), DHT (dihydrotestosterone) was added to the culture system at a final concentration of 1 nM. The culture system was then incubated in a carbon dioxide incubator. The final volume of the system in the plate was 100 µL.
Test compound: 10 mM stock solution, with a final concentration of 3.3 µM or 6.7 µM. Negative control: 0.1% DMSO. Positive control: 30 µM enzalutamide.
After the test compound (or DMSO or positive control) and DHT were co-incubated for 6 or 24 h, the luciferase signal was detected using the Vazyme Bright-Lite substrate. The medium was added at 70 µL/well, and the plate was shaken for 2 min, followed by reading of the luciferase signal.
Assay robustness was confirmed using the DMSO and low concentration control data: Ave_H = Ave (DMSO) [formula] Ave_L = Ave (30000nMenzalutamide) [formula] Inhibition rate (%) = (Ave_H−Sample)/(Ave_H−Ave_L) × 100% [formula] • Ave_H: the measurement of the negative control (0.1% DMSO); • Ave_L: the measurement of the positive control (30 µM enzalutamide); • Sample: the measurement of the test compound;

[4] = 5 µM
Method: as §7, §8, §9, §10, §11

[5] = human, microsomes, 1 µM, pH 7.4
Method: as §1, §2, §3, §4, §5, §6

[6] = 5 µM; remark: listed apart in the source
Method: as §7, §8, §9, §10, §11

C57BL/6 mice = experiment: In vivo pharmacodynamic study: hair growth scoring in shaved telogen-phase mice; conditions: for Score (mean±SD): hair growth score 0-5, 0.5 wt% applied to shaved area twice daily
Description: Vehicle: propylene glycol/ethanol (30:70, v/v)
Animal information: C57BL/6 mice (male, aged 6 weeks, about 18-20 g), purchased from Shanghai Lingchang Biotechnology Co., Ltd. The mice were bred in an SPF-level environment within independently ventilated cages. All animals had free access to a certified, commercial standard laboratory diet and drinking water.
Skin preparation: After 1-2 weeks of acclimation, the hairs in a 2 cm × 3 cm area of the back of the mice were shaved to confirm that the hairs of the mice were in the telogen phase (the skin was pink) and the skin was not damaged.
The control group received the vehicle. 12 mice were in each group.
The scoring criteria are as follows: • 0: no growth, with pink skin in the shaved area; • 1: the skin in the shaved area was gray (an increase of less than 20%); • 2: the skin in the shaved area was black (more than 20% but less than 40%); • 3: the skin in the shaved area was black with a little hair growth (more than 40% but less than 60%); • 4: the skin in the shaved area was black with partial hair growth (more than 60% but less than 80%); • 5: basically complete hair growth (80%-100% growth) in the shaved area.

[7] = mouse, in vivo
Description: Treatment: On day 3 after shaving, the mice were grouped for treatment. […] The control group received the vehicle. 12 mice were in each group.

[8] = incubation time: 24 h, test concentration: 3.3 µM, LNCaP cells, 1 nM DHT, normalised to 0.1% DMSO and 30 µM enzalutamide

For `CC(C)OC(=O)CCCC(C)(O)C(=O)Nc1cnc(C#N)c(C(F)(F)F)c1` (single isomer, unassigned) [Compound 009], the microsomal CLint at 1 µM (in vitro [1]) was 234 µL/min/mg, the half-life at 1 µM (in vitro [1]) was 5.9 min and the half-life at 5 µM (in vitro [2]) was 10 min. The half-life at 5 µM (in vitro [3]) was 210 min and the “AR antagonism (inhibition rate, %)” value (AR; 24 h, 6.7 µM) was 97.66^c %.
In the case of `CC(O)(CCO)C(=O)Nc1cnc(C#N)c(C(F)(F)F)c1` (centres unmarked) [Compound 002, N-[6-cyano-5-(trifluoromethyl)pyridin-3-yl]-2,4-dihydroxy-2-methylbutanamide], the “AR antagonism (inhibition rate, %)” value (AR; [8]) is reported as 59.75^a %.
For `CCOC(=O)CCCC(C)(O)C(=O)Nc1cnc(C#N)c(C(F)(F)F)c1` (single isomer, unassigned) [Compound 006], the “Half-life T 1/2 in CD-1 mouse whole blood” value [4] was 3.61 min, the “In vitro Clint” value [5] was 199.5 µL/min/mg protein and the “In vitro T1/2” value [5] was 6.9 min. The “Half-life T 1/2 in human whole blood” value [6] was 183.42 min, the “AR antagonism (inhibition rate, %)” value (AR; 24 h, 3.3 µM) was 88.13^a % and the “AR antagonism (inhibition rate, %)” value (AR; 24 h, 6.7 µM) was 90.51^c %.
With `CCOC(=O)CCCCC(C)(O)C(=O)Nc1cnc(C#N)c(C(F)(F)F)c1` (centres unmarked) [Compound 027, Ethyl 7-((6-cyano-5-(trifluoromethyl)pyridin-3-yl)amino)-6-hydroxy-6-methyl-7-oxoheptanoate] the “AR antagonism (inhibition rate, %)” value (AR; [8]) was 76.55^a %.
For `CSc1cc(NC(=O)C(C)(O)CCCC(=O)OC(C)(C)C)cnc1C#N` (centres unmarked) [Compound 019, tert-butyl 6-((6-cyano-5-(methylthio)pyridin-3-yl)amino)-5-hydroxy-5-methyl-6-oxohexanoate], the “AR antagonism (inhibition rate, %)” value (AR; incubation time: 6 h, test concentration: 6.7 µM, LNCaP cells, 1 nM DHT, normalised to 0.1% DMSO and 30 µM enzalutamide) was 57.98^b %.
Work on `COC(=O)CCCC(C)(O)C(=O)Nc1cnc(C#N)c(C(F)(F)F)c1` (single isomer, unassigned) [Compound 007] yielded a microsomal CLint at 1 µM (in vitro [1]) of 226 µL/min/mg, a half-life at 1 µM (in vitro [1]) of 6.1 min and a half-life at 5 µM (in vitro [2]) of 2.7 min. For the same compound, the half-life at 5 µM (in vitro [3]) was 82.7 min and the “AR antagonism (inhibition rate, %)” value (AR; 24 h, 6.7 µM) was 100.00^c %.
For `CSc1cc(NC(=O)C(C)(O)CCCC(=O)OC(C)C)cnc1C#N` (single isomer, unassigned) [Compound 018], the “Half-life T 1/2 in CD-1 mouse whole blood” value [4] was 4.93 min, the “In vitro Clint” value [5] was 247.8 µL/min/mg protein and the “In vitro T1/2” value [5] was 5.6 min. For the same compound, the “Half-life T 1/2 in human whole blood” value [6] was 194.81 min and the “AR antagonism (inhibition rate, %)” value (AR; 24 h, 6.7 µM) was 63.12^c %.
With `CSc1cc(NC(=O)C(O)CCCC(=O)OC(C)C)cnc1C#N` (centres unmarked) [Compound 032, Isopropyl 6-((6-cyano-5-(methylthio)pyridin-3-yl)amino)-5-hydroxy-6-oxohexanoate] the “AR antagonism (inhibition rate, %)” value (AR; [8]) was 92.25^a %.
In the case of `CC(C)OC(=O)CCCC(C)(O)C(=O)Nc1cnc(C#N)c(C(F)(F)F)c1` (single isomer, unassigned) [Compound 010], the “Half-life T 1/2 in CD-1 mouse whole blood” value [4] is reported as 5.97 min, the “In vitro Clint” value [5] is reported as 124.8 µL/min/mg protein and the “In vitro T1/2” value [5] is reported as 11.1 min. The “Score (mean±SD)” value (C57BL/6 mice; Day 0) was 0, the “Score (mean±SD)” value (C57BL/6 mice; Day 10) was 0.2±0.4 and the “Score (mean±SD)” value (C57BL/6 mice; Day 13) was 0.2±0.4. For the same compound, the “Score (mean±SD)” value (C57BL/6 mice; Day 16) was 0.3±0.5, the “Score (mean±SD)” value (C57BL/6 mice; Day 20) was 0.7±0.7 and the “Score (mean±SD)” value (C57BL/6 mice; Day 23) was 0.8±0.6. The “Score (mean±SD)” value (C57BL/6 mice; Day 27) was 1.1±0.7, the “Score (mean±SD)” value (C57BL/6 mice; Day 32, ** P < 0.01 vs. vehicle control group) was 1.9±0.7** and the “effect on hair growth” value (C57BL/6 mice; mice with telogen hair growth, 0.5 wt%, BID topically at 20 µL/cm^2, P < 0.01 from day 32) was “significant promoting effect on hair growth”. For the same compound, the “Half-life T 1/2 in human whole blood” value [6] was 351.20 min, the “signs of erythema, dehiscence, desquamation on the skin” value [7] was “no signs of erythema, dehiscence, desquamation” and the “AR antagonism (inhibition rate, %)” value (AR; 24 h, 6.7 µM) was 85.37^c %.
In the case of `CC(O)(CCCCO)C(=O)Nc1cnc(C#N)c(C(F)(F)F)c1` (centres unmarked) [Compound 001, N-[6-cyano-5-(trifluoromethyl)pyridin-3-yl]-2,6-dihydroxy-2-methyl-hexanamide], the “AR antagonism (inhibition rate, %)” value (AR; [8]) is reported as 87.89^a %.
In the case of `COC(=O)CCCC(C)(O)C(=O)Nc1cnc(C#N)c(SC)c1` (single isomer, unassigned) [Compound 016], the “Half-life T 1/2 in CD-1 mouse whole blood” value [4] is reported as 9.44 min, the “In vitro Clint” value [5] is reported as 1216.15 µL/min/mg protein and the “In vitro T1/2” value [5] is reported as 1.14 min. The “Half-life T 1/2 in human whole blood” value [6] was 70.19 min.
For `CCOC(=O)CCCC(C)(O)C(=O)Nc1cnc(C#N)c([Se]C)c1` (centres unmarked) [Compound 024, Ethyl 6-[(6-cyano-5-methylselanylpyridin-3-yl)amino]-5-hydroxy-5-methyl-6-oxohexanoate], the “AR antagonism (inhibition rate, %)” value (AR; [8]) was 88.18^a %.
With `COC(=O)CCCC(C)(O)C(=O)Nc1cnc(C#N)c(SC)c1` (single isomer, unassigned) [Compound 015] the “Half-life T 1/2 in CD-1 mouse whole blood” value [4] was 4.34 min, the “In vitro Clint” value [5] was 270.78 µL/min/mg protein and the “In vitro T1/2” value [5] was 5.12 min. For the same compound, the “Half-life T 1/2 in human whole blood” value [6] was 164.02 min and the “AR antagonism (inhibition rate, %)” value (AR; 24 h, 3.3 µM) was 92.46^a %.
In the case of `CCOC(=O)CCC[C@](C)(O)C(=O)Nc1cnc(C#N)c(SC)c1` [Compound 014, ethyl (6S)/(6R)-6-((6-cyano-5-(methylthio)pyridin-3-yl)amino)-5-hydroxy-5-methyl-6-oxohexanoate], the “Half-life T 1/2 in CD-1 mouse whole blood” value [4] is reported as 1.13 min, the “Half-life T 1/2 in human whole blood” value [6] is reported as 89.49 min and the “AR antagonism (inhibition rate, %)” value (AR; incubation time: 24 h, test concentration: 6.7 µM, LNCaP cells, 1 nM DHT, normalised to 0.1% DMSO and 30 µM enzalutamide) is reported as 64.39^c %.
Work on `CCOC(=O)CCCC(C)(O)C(=O)Nc1cnc(C#N)c(SC)c1` (single isomer, unassigned) [Compound 013] yielded a microsomal CLint at 1 µM (in vitro [1]) of 487 µL/min/mg, a half-life at 1 µM (in vitro [1]) of 2.8 min and a half-life at 5 µM (in vitro [2]) of under 0.5 min. The half-life at 5 µM (in vitro [3]) was 118 min.
With `CCOC(=O)CCCC(C)(O)C(=O)Nc1ccc(C#N)c(OC)c1` (centres unmarked) [Compound 030, Ethyl 6-(4-cyano-3-methoxy-anilino)-5-hydroxy-5-methyl-6-oxohexanoate] the “AR antagonism (inhibition rate, %)” value (AR; [8]) was 98.45^a %.
For `CCOC(=O)CCCC(C)(O)C(=O)Nc1ccc(C#N)c(SC)c1` (centres unmarked) [Compound 029, Ethyl 6-(4-cyano-3-methylthio-anilino)-5-hydroxy-5-methyl-6-oxohexanoate], the “AR antagonism (inhibition rate, %)” value (AR; [8]) was 98.41^a %.
In the case of `CCOC(=O)CCCC(C)(O)C(=O)Nc1cnc(C#N)c(C(F)(F)F)c1` (single isomer, unassigned) [Compound 005], the half-life at 5 µM (in vitro [2]) is reported as 3.54 min, the “In vitro Clint” value [5] is reported as 670.7 µL/min/mg protein and the “In vitro T1/2” value [5] is reported as 2.1 min. The half-life at 5 µM (in vitro [3]) was 119 min and the “AR antagonism (inhibition rate, %)” value (AR; 6 h, 6.7 µM) was 92.96^b %.
For `COC(=O)CCCC(C)(O)C(=O)Nc1cnc(C#N)c(C(F)(F)F)c1` (single isomer, unassigned) [Compound 008], the “Half-life T 1/2 in CD-1 mouse whole blood” value [4] was 3.94 min, the “In vitro Clint” value [5] was 131.2 µL/min/mg protein and the “In vitro T1/2” value [5] was 10.6 min. For the same compound, the “Half-life T 1/2 in human whole blood” value [6] was 141.44 min and the “AR antagonism (inhibition rate, %)” value (AR; 6 h, 6.7 µM) was 92.41^b %.
In the case of `CSc1cc(NC(=O)C(C)(O)CCCC(=O)OC(C)C)cnc1C#N` (single isomer, unassigned) [Compound 017], the microsomal CLint at 1 µM (in vitro [1]) is reported as 243 µL/min/mg, the half-life at 1 µM (in vitro [1]) is reported as 5.7 min and the half-life at 5 µM (in vitro [2]) is reported as 4.64 min. For the same compound, the half-life at 5 µM (in vitro [3]) was 206 min.

From EP4786452A1, “AMIDE COMPOUNDS” (China Pharmaceutical University, priority 2023, dated 2025)
